Key:
[1] = method code SF, from DOI: 10.1021/jm00326a002, PMID: 14332653
[2] = method code SF-AS, from DOI: 10.1021/jm00326a002, PMID: 14332653
[3] = method code SF-GLC, from DOI: 10.1021/jm00326a002, PMID: 14332653

COC(=O)CCCCC(C)=O
logP [1]: 0.55

BrCCc1ccccc1
logP [2]: 3.09

FCCCc1ccccc1
logP [2]: 2.95

CCCCSC#N
logP [2]: 2.03

COC(=O)CCC(C)=O
logP [1]: -0.13

BrCCCc1ccccc1
logP [2]: 3.72

NC(=O)CCc1ccccc1
logP [2]: 0.91

CC(=O)Cc1ccccc1
logP [2]: 1.44

CN(C)CCCc1ccccc1
logP [2]: 2.73

c1ccc2ncccc2c1
logP [2]: 2.03

N#CCCCc1ccccc1
logP [2]: 2.21

CC(=O)CCC1CC1
logP [3]: 1.5

COC(=O)CCCc1ccccc1
logP [2]: 2.77

CC(=O)OCCc1ccccc1
logP [2]: 2.3

C#Cc1ccccc1
logP [2]: 2.53

ClCCc1ccccc1
logP [2]: 2.95

NC(=O)CCCc1ccccc1
logP [2]: 1.41

COC(=O)CCc1ccccc1
logP [2]: 2.32

C=CCCC(C)=O
logP [2]: 1.02

N#CCCc1ccccc1
logP [2]: 1.72

COC(=O)Cc1ccccc1
logP [2]: 1.83

COCCCc1ccccc1
logP [2]: 2.7

CC(=O)CCCc1ccccc1
logP [2]: 2.42

Source: the SangsterLogP compilation
